Patent publication US20090286806A1, “ISOXAZOLE DERIVATIVES AS CALCIUM CHANNEL BLOCKERS” (priority 2006, published 2009)
Where two headings read alike, the source gives them in different places.

What was measured:
[1] = molecular target: T1, rat brain N-type calcium channel subunits (α1B+α2δ+β1b cDNA subunits) (Rattus norvegicus, UniProt Q02294); assay: N-type calcium channel block, whole cell patch clamp in transfected HEK 293 cells; assay type: cell-based; conditions: holding potential −80 mV to +10 mV
T1 construct: expressed in transfected cells; host or cells: HEK 293
Method: N-type calcium channel blocking activity was assayed in human embryonic kidney cells, HEK 293, stably transfected with the rat brain N-type calcium channel subunits (α1B+α2δ+β1b cDNA subunits). Alternatively, N-type calcium channels (α1B+α2δ+β1b cDNA subunits), L-type channels (α1C+α2δ+β1b cDNA subunits) and P/Q-type channels (α1A+α2δ+β1b cDNA subunits) were transiently expressed in HEK 293 cells. Briefly, cells were cultured in Dulbecco's modified eagle medium (DMEM) supplemented with 10% fetal bovine serum, 200 U/ml penicillin and 0.2 mg/ml streptomycin at 37° C. with 5% CO2. At 85% confluency cells were split with 0.25% trypsin/1 mM EDTA and plated at 10% confluency on glass coverslips. At 12 hours the medium was replaced and the cells transiently transfected using a standard calcium phosphate protocol and the appropriate calcium channel cDNA's. Fresh DMEM was supplied and the cells transferred to 28° C./5% CO2. Cells were incubated for 1 to 2 days prior to whole cell recording.
Whole cell patch clamp experiments were performed using an Axopatch 200B amplifier (Axon Instruments, Burlingame, Calif.) linked to a personal computer equipped with pCLAMP software. The external and internal recording solutions contained, respectively, 5 mM BaCl2, 10 mM MgCl2, 10 mM HEPES, 40 mM TEACl, 10 mM glucose, 87.5 mM CsCl (pH 7.2) and 108 mM CsMS, 4 mM MgCl2, 9 mM EGTA, 9 mM HEPES (pH 7.2). Currents were typically elicited from a holding potential of −80 mV to +10 mV using Clampex software (Axon Instruments). Typically, currents were first elicited with low frequency stimulation (0.067 Hz) and allowed to stabilize prior to application of the compounds. The compounds were then applied during the low frequency pulse trains for two to three minutes to assess tonic block, and subsequently the pulse frequency was increased to 0.2 Hz to assess frequency dependent block. Data were analyzed using Clampfit (Axon Instruments) and SigmaPlot 4.0 (Jandel Scientific).

[2] = molecular target: T2, human α1G T-type channels (Homo sapiens, UniProt O43497); assay: T-type calcium channel block, whole-cell patch clamp in HEK cell lines; assay type: cell-based; conditions: HEK cells
T2 construct: expressed in transfected cells; host or cells: HEK cell lines
Method: Standard patch-clamp techniques were employed to identify blockers of T-type currents. Briefly, previously described HEK cell lines stably expressing human α1G T-type channels were used for all the recordings (passage #: 4-20, 37° C., 5% CO2). To obtain T-type currents, plastic dishes containing semi-confluent cells were positioned on the stage of a ZEISS AXIOVERT S100 microscope after replacing the culture medium with external solution (see below). Whole-cell patches were obtained using pipettes (borosilicate glass with filament, O.D.: 1.5 mm, I.D.: 0.86 mm, 10 cm length), fabricated on a SUTTER P-97 puller with resistance values of ˜5 M• (see below for internal solution).
In the non-inactivating protocol, the holding potential is set at −110 mV and with a pre-pulse at −100 mV for 1 second prior to the test pulse at −40 mV for 50 ms. […]
Test compounds were dissolved in external solution, 0.1-0.01% DMSO. After ˜10 min rest, they were applied by gravity close to the cell using a WPI microfil tubing. The “non-inactivated” pre-pulse was used to examine the resting block of a compound. The “inactivated” protocol was employed to study voltage-dependent block. However, the initial data shown below were mainly obtained using the non-inactivated protocol only. IC50 values are shown for various compounds of the invention in Table 5.

[3] = tested on: T-type over L-type channels; conditions: literature statement (Heady et al. 2001); cited from earlier work
[4] = low frequency stimulation 0.067 Hz (tonic block), read-out: IC50 @ 0.067 Hz
[5] = pulse frequency 0.2 Hz (frequency dependent block), read-out: IC50 @ 0.2 Hz
[6] = inactivation protocol (voltage-dependent block), read-out: IC50 @ −80 mV
[7] = non-inactivating protocol, pre-pulse −100 mV (resting block), read-out: IC50 @ −100 mV

T2 sequence (O43497 whole entry): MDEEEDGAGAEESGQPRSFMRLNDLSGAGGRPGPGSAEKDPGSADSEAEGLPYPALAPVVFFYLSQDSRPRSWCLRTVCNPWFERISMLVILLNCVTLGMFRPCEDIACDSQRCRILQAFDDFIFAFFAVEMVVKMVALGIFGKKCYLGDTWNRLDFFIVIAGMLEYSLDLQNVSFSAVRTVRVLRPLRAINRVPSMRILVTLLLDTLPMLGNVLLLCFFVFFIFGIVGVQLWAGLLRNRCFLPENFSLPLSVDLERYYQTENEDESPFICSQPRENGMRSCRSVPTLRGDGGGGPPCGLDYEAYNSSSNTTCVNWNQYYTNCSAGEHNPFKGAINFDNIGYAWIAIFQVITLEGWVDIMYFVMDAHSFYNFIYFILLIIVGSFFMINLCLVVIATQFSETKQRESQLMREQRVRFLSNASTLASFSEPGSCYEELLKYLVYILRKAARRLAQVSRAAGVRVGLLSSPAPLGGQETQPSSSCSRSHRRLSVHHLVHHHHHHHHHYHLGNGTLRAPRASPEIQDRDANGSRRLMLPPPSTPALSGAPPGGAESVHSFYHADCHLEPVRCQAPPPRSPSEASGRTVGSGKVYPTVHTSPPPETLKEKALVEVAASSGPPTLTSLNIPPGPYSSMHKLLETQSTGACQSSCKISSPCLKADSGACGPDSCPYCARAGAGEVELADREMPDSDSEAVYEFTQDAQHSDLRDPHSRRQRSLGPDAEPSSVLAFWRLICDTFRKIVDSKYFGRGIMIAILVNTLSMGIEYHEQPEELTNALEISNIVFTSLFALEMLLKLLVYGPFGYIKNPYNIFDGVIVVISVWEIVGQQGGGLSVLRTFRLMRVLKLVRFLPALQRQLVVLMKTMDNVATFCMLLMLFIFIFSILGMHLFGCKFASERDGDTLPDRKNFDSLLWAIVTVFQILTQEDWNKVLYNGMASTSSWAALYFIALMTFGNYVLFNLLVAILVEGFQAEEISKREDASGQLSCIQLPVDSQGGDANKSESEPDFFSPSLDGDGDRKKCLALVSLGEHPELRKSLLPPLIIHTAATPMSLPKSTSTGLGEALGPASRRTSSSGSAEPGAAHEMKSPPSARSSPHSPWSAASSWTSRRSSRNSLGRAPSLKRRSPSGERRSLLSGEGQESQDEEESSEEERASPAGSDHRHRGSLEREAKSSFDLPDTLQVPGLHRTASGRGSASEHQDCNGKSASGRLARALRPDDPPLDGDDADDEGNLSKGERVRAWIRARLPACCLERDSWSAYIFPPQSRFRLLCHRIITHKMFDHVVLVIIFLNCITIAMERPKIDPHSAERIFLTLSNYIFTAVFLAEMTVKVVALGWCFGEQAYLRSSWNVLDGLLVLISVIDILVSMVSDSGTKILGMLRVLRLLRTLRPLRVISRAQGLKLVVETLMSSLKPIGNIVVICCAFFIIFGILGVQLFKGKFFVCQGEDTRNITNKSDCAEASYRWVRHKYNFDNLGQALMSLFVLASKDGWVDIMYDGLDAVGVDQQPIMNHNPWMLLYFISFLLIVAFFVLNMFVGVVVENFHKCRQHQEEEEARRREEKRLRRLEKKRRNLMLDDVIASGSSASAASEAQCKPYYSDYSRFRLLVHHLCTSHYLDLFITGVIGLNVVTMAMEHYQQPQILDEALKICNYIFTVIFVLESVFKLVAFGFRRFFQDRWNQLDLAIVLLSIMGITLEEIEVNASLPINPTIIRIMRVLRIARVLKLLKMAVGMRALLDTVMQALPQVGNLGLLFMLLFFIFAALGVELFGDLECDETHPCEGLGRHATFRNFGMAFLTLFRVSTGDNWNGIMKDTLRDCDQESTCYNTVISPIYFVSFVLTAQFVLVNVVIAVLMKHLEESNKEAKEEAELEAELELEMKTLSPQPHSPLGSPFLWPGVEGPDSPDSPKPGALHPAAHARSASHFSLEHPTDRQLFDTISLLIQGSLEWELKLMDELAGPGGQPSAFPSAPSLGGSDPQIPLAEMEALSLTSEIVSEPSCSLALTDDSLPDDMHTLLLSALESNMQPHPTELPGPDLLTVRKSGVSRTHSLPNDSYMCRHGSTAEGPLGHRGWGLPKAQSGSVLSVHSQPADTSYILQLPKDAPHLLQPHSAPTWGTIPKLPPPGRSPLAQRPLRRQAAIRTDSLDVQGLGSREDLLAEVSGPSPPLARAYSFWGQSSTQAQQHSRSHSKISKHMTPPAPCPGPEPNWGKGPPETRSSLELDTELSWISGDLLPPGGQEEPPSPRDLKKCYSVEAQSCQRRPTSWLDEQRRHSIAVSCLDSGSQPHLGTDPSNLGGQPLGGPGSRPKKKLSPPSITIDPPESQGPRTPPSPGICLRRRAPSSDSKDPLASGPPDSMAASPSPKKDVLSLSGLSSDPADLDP
T1 sequence (Q02294 whole entry): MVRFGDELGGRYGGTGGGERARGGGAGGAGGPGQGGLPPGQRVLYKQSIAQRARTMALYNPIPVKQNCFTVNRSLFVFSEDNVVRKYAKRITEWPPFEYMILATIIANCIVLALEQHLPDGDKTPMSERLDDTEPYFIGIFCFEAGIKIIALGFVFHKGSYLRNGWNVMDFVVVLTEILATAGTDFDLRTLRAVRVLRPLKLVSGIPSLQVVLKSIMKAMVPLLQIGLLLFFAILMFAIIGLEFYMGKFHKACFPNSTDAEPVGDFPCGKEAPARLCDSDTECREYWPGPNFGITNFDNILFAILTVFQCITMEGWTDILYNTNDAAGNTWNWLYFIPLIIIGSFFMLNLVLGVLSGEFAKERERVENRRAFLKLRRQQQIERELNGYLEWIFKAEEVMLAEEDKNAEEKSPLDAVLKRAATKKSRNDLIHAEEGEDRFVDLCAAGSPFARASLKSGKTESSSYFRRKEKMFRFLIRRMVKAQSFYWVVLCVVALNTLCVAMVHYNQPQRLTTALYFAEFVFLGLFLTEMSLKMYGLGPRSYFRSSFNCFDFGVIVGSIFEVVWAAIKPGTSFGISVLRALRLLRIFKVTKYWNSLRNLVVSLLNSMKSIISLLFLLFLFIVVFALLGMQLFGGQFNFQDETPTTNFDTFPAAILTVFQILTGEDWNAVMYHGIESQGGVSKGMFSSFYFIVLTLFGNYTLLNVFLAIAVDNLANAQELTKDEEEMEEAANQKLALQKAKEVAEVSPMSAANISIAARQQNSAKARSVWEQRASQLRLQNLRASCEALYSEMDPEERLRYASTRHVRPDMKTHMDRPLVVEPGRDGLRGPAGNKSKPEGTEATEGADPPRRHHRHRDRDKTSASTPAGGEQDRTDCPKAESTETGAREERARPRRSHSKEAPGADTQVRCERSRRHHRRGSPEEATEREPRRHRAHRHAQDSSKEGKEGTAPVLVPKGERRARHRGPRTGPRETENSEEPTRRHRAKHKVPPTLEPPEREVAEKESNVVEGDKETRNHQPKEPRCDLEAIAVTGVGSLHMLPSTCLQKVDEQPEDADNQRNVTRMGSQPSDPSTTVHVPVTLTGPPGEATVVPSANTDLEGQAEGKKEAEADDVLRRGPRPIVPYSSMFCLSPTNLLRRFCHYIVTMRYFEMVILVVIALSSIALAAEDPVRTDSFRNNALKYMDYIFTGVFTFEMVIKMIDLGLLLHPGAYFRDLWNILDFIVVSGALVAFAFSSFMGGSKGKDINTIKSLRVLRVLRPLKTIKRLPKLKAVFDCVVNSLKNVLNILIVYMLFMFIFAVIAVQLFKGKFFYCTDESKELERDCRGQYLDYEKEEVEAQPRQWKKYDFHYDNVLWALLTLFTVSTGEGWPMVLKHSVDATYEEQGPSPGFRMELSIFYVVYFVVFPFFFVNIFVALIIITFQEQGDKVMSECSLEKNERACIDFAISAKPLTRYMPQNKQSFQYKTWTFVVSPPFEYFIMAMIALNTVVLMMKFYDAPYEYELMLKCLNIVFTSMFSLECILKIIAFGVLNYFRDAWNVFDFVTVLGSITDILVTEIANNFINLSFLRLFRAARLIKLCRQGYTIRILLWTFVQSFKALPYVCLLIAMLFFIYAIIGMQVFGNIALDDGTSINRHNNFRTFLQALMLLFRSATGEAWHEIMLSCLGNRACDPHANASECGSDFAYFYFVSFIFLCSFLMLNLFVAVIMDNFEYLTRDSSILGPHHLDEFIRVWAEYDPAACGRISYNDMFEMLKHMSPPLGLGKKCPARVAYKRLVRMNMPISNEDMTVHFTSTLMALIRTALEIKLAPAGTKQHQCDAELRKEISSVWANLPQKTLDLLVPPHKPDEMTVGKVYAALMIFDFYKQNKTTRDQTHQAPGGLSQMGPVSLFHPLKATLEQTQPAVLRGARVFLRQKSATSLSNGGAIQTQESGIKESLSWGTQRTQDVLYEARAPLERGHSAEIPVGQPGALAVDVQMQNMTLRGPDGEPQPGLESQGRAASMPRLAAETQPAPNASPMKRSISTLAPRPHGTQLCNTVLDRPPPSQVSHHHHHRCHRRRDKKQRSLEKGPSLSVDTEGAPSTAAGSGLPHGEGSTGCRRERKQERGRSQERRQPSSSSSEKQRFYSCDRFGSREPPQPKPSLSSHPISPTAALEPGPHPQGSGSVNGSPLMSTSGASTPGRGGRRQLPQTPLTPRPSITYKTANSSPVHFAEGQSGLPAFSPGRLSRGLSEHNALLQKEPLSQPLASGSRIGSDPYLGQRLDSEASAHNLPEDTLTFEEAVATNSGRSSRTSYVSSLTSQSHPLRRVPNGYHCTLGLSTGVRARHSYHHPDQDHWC

Compound	IC50 [1, 4]	IC50 [1, 5]	IC50 [2, 6]	IC50 [2, 7]	selective for T-type over L-type channels [3]
O=C(c1cc(-c2ccccc2F)no1)N1CCN(C(c2ccccc2)c2ccc(Cl)cc2Cl)CC1 (stereo not drawn) [Compound 15, (4-((2,4-dichlorophenyl)(phenyl)methyl)piperazin-1-yl)(3-(2-fluorophenyl)isoxazol-5-yl)methanone]	6470 nM	3380 nM	–	–	–
O=C(c1cc(-c2ccccc2F)no1)N1CCN(C(c2ccccc2)c2ccccc2)CC1 [Compound 3, (4-benzhydrylpiperazin-1-yl)(3-(2-fluorophenyl)isoxazol-5-yl)methanone]	800 nM	370 nM	–	–	–
Clc1ccc(C(c2ccccc2)N2CCN(Cc3cc(-c4ccccc4)no3)CC2)c(Cl)c1 (stereo not drawn) [Compound 14, 5-((4-((2,4-dichlorophenyl)(phenyl)methyl)piperazin-1-yl)methyl)-3-phenylisoxazole]	22200 nM	2240 nM	5530 nM	> 16500 nM	–
O=C(CC(c1ccccc1)c1ccccc1)N1CCN(Cc2cc(-c3ccccc3F)no2)CC1 [Compound 7, 1-(4-((3-(2-fluorophenyl)isoxazol-5-yl)methyl)piperazin-1-yl)-3,3-diphenylpropan-1-one]	520 nM	330 nM	–	–	–
COc1ccccc1-c1cc(CN2CCN(C(c3ccccc3)c3ccccc3)CC2)on1 [Compound 5, 5-((4-benzhydry1piperazin-1-yl)methyl)-3-(2-methoxyphenyl)isoxazole]	680 nM	340 nM	–	–	–
O=C(c1cc(-c2ccccc2)no1)N1CCN(C(c2ccccc2)c2ccccc2)CC1 [Compound 1, (4-benzhydrylpiperazin-1-yl)(3-phenylisoxazol-5-yl)methanone]	650 nM	290 nM	1900 nM	> 10000 nM	–
COc1ccccc1-c1cc(C(=O)N2CCN(C(c3ccccc3)c3ccccc3)CC2)on1 [Compound 4, (4-benzhydrylpiperazin-1-yl)(3-(2-methoxyphenyl)isoxazol-5-yl)methanone]	2990 nM	1490 nM	–	–	–
Fc1ccccc1-c1cc(CN2CCN(C(c3ccccc3)c3ccc(Cl)cc3Cl)CC2)on1 (stereo not drawn) [Compound 16, 5-((4-((2,4-dichlorophenyl)(phenyl)methyl)piperazin-1-yl)methyl)-3-(2-fluorophenyl) isoxazole]	3150 nM	1960 nM	–	–	–
COCC(=O)O[C@]1(CCN(C)CCCc2nc3ccccc3[nH]2)CCc2cc(F)ccc2[C@@H]1C(C)C [Mibefradil]	–	–	–	–	10-30 fold

Now from value to compound, other results behind:

IC50 [1, 4]	IC50 [1, 5]	IC50 [2, 6]	IC50 [2, 7]	Compound	selective for T-type over L-type channels [3]
1070 nM	400 nM	2180 nM	9210 nM	Cc1ccc(C(c2ccccc2)N2CCN(Cc3cc(-c4ccccc4)no3)CC2)c(C)c1 (stereo not drawn) [Compound 10, 5-((4-((2,4-dimethylphenyl)(phenyl)methyl)piperazin-1-yl)methyl)-3-phenylisoxazole]	–
1700 nM	670 nM	350 nM	1600 nM	c1ccc(-c2cc(CN3CCN(C(c4ccccc4)c4ccccc4)CC3)on2)cc1 [Compound 2, 5-((4-benzhydrylpiperazin-1-yl)methyl)-3-phenylisoxazole]	–
3400 nM	1100 nM	–	–	Fc1ccccc1-c1cc(CN2CCN(C(c3ccccc3)c3ccccc3)CC2)on1 [Compound 6, 5-((4-benzhydry1piperazin-1-yl)methyl)-3-(2-fluorophenyl)isoxazole]	–
950 nM	570 nM	830 nM	3690 nM	Cc1ccc(C(c2ccccc2)N2CCN(Cc3cc(-c4ccccc4F)no3)CC2)c(C)c1 (stereo not drawn) [Compound 12, 5-((4-((2,4-dimethylphenyl)(phenyl)methyl)piperazin-1-yl)methyl)-3-(2-fluorophenyl)isoxazole]	–
2800 nM	1200 nM	1700 nM	> 10000 nM	O=C(CC(c1ccccc1)c1ccccc1)N1CCN(Cc2cc(-c3ccccc3)no2)CC1 [Compound 9, 3,3-diphenyl-1-(4-((3-phenylisoxazol-5-yl)methyl)piperazin-1-yl)propan-1-one]	–
600 nM	290 nM	–	–	COc1ccccc1-c1cc(CN2CCN(C(=O)CC(c3ccccc3)c3ccccc3)CC2)on1 [Compound 8, 1-(4-((3-(2-methoxyphenyl)isoxazol-5-yl)methyl)piperazin-1-yl)-3,3-diphenylpropan-1-one]	–
2180 nM	1130 nM	2770 nM	14800 nM	Cc1ccc(C(c2ccccc2)N2CCN(C(=O)c3cc(-c4ccccc4F)no3)CC2)c(C)c1 (stereo not drawn) [Compound 11, (4-((2,4-dimethylphenyl)(phenyl)methyl)piperazin-1-yl)(3-(2-fluorophenyl)isoxazol-5-yl)methanone]	–
